Experimental data: US4528375A, “Substituted 3,4-diamino-1,2,5-thiadiazoles having histamine H2 -receptor antagonist activity” (Bristol-Myers Company, priority 1984, dated 1985)

How the values were obtained:
gastric acid secretion = assay: Gastric Antisecretory Activity in the Gastric Fistula Rat; format: in vivo, Male Long Evans rats; settings: sc; for Potency Ratio (cimetidine = 1.0): gastric fistula rat, relative to cimetidine
peptic ulcer disease = settings: clinical evaluation, Gray et al., Lancet, 1, 8001 (1977); cited from earlier work

Structure (SMILES) | Potency Ratio (cimetidine = 1.0) (gastric acid secretion) | effectiveness in the treatment of peptic ulcer disease (peptic ulcer disease) | ED50 (gastric acid secretion; Rattus norvegicus, read-out: ED50 sc) [µmol/kg]
Nc1nsnc1NCCCOc1cccc(CN2CCCCC2)c1 [Example 1, 3-Amino-4-[3-(3-piperidinomethylphenoxy)propylamino]-1,2,5-thiadiazole] | 37 |  | 
CN(C)Cc1ccc(CSCCNc2nsnc2N)o1 [Example 2, 3-Amino-4-{2-[(5-dimethylaminomethyl-2-furyl)methylthio]ethylamino}-1,2,5-thiadiazole] | 4.5 |  | 
Nc1nsnc1NCCCOc1cccc(CN2CCCC2)c1 [Example 4, 3-Amino-4-[3-(3-pyrrolidinomethylphenoxy)propylamino]-1,2,5-thiadiazole] | 20 |  | 
Cc1cc(CSCCNc2nsnc2N)sc1CN(C)C [Example 3, 3-Amino-4-{2-[(5-dimethylaminomethyl-4-methyl-2-thienyl)methylthio]ethylamino}-1,2,5-thiadiazole] | ~ 7 |  | 
CN/C(=N/CCSCc1nc[nH]c1C)NC#N [cimetidine, reference compound] |  | effective therapeutic agent in the treatment of peptic ulcer disease | 3.48
